Measurements as given in US20080269052A1, “USE of PYRIDINE-2-OXY-3-CARBOXAMIDES AS SAFENERS” (priority 2007, published 2008).

Assays:
Type in all cases: in vivo
[1] = system: economically important harmful plants (weed grases and broad-leaved weeds); assay: Pre-emergence herbicide action against harmful plants in the presence of safener; conditions: in combination with safener
Description: (§1) The damage to the plants is scored visually using a scale of 0-100%, in comparison to control plants: 0%=no noticeable effect compared to the untreated plant 100%=the treated plants dies. Seeds or rhizome pieces of monocotyledonous and dicotyledonous weed plants and crop plants were placed in sandy loam soil in plastic pots and covered with soil. The herbicide/safener active compound combinations according to the invention, formulated as water-soluble powders or suspensions, and in parallel tests the individual active compounds formulated in a corresponding manner, were then, at various dosages at a water application rate of 300 to 800 l/ha (converted), applied to the surface of the covering soil. After the treatment, the pots were placed in the greenhouse and kept under good growth conditions for the weeds and the crop plants. Visual scoring of the plant damage or emergence damage was carried out after the test plants had emerged after a test period of 2 to 4 weeks, in comparison to untreated controls.

[2] = system: economically important harmful plants (weed grases and broad-leaved weeds); assay: Post-emergence herbicide action against harmful plants in the presence of safener; conditions: in combination with safener
Description: (§2) The damage to the plants is scored visually using a scale of 0-100%, in comparison to control plants: 0%=no noticeable effect compared to the untreated plant 100%=the treated plants dies. Seeds or rhizome pieces of monocotyledonous and dicotyledonous harmful plants and crop plants are placed in sandy loam soil in plastic pots, covered with soil and cultivated in the greenhouse under good growth conditions. Alternatively, harmful plants encountered in paddy rice cultivation are cultivated in pots in which the surface of the soil is covered by up to 2 cm of water. Ten to twenty days after sowing, the test plants are treated at the one to three-leaf stage. The herbicide/safener active compound combinations according to the invention, formulated as water-soluble powders or suspensions, and in parallel tests the individual active compounds formulated in a corresponding manner, are sprayed at various dosages at a water application rate of 300 l/ha (converted) onto the green parts of the plants, and, after the test plants were left to stand in the greenhouse for about 2 to 3 weeks under optimum growth conditions, the effect of the preparations is scored visually in comparison to untreated controls. In the case of rice or harmful plants encountered in the cultivation of rice, the active compounds are also added directly to the irrigation water (application analogously to the so-called granule application) or sprayed onto the plants and into the irrigation water.

[3] = system: Triticum aestivum (spring wheat); assay: Seed treatment with safeners, spring wheat; conditions: safener (Ia) 1.0 g of AS/kg seed, TRZAS
Description: (§3) The damage to the plants is scored visually using a scale of 0-100%, in comparison to control plants: 0%=no noticeable effect compared to the untreated plant 100%=the treated plants dies. Seeds of crop plants were mixed in bottles with the safeners according to the invention, formulated as suspension or emulsion concentrates, and water, and the mixture was shaken well so that the seeds were coated evenly with the formulation of the safener in question. The seeds or the emerged plants were then tested with herbicides in the pre- or post-emergence method according to the tests of examples 3.3 and 3.2, respectively.

Oryza sativa (rice) [4] = assay: Post-emergence herbicide action and safener action, rice; conditions: ORYSA
Description: as §2

Zea mays (corn) [5] = assay: Pre-emergence herbicide action and safener action, corn; conditions: ZEAMX
Description: as §1

Oryza sativa (rice) [6] = assay: Pre-emergence herbicide action and safener action, rice; conditions: herbicide (2.2.16) oxadiazon 400 g of AS/ha, safener (Ia) 75 g of AS/ha, ORYSA
Description: as §1

Hordeum vulgare (barley) [7] = assay: Post-emergence herbicide action and safener action, barley; conditions: safener (Ia) 100 g of AS/ha, HORVU
Description: as §2

Zea mays (corn) [8] = assay: Seed treatment with safeners, corn; conditions: ZEAMX
Description: as §3

Hordeum vulgare (barley) [9] = assay: Seed treatment with safeners, barley; conditions: HORVU
Description: as §3

[10] = system: Triticum aestivum (spring wheat); assay: Post-emergence herbicide action and safener action, spring wheat; conditions: TRZAS
Description: as §2

Zea mays (corn) [11] = assay: Post-emergence herbicide action and safener action, corn; conditions: safener (Ia) 50 g of AS/ha, ZEAMX
Description: as §2

[12] = herbicide (1.2.1.58) thiencarbazone-methyl 15 g of AS/ha

NC(=O)c1ccc(C(F)F)nc1O [safener (Ic), 2-oxo-6-difluoromethyl-1,2-dihydropyridine-3-carboxamide]
action of the respective herbicide against economically important harmful plants [1]: not, or not substantially, adversely affected
action of the herbicide against economically important harmful plants [2]: not, or not substantially, adversely affected

NC(=O)c1ccc(C(F)(F)Cl)[nH]c1=O [safener (Ib), 2-oxo-6-difluorochloromethyl-1,2-dihydropyridine-3-carboxamide]
action of the respective herbicide against economically important harmful plants [1]: not, or not substantially, adversely affected
action of the herbicide against economically important harmful plants [2]: not, or not substantially, adversely affected

NC(=O)c1ccc(C(F)(F)F)[nH]c1=O [safener (Ia), 2-oxo-6-trifluoromethyl-1,2-dihydropyridine-3-carboxamide]
Reduction of the harmful effect ([3]; herbicide (1.2.1.14) mesosulfuron-methyl 30 g of AS/ha): category A (category A = 50-100% reduction of the harmful action)
Reduction of the harmful effect [3, 12]: category A (category A = 50-100% reduction of the harmful action)
Reduction of the harmful effect (Oryza sativa (rice) [4]; herbicide (1.1.1.4) mesotrione 400 g of AS/ha, safener (Ia) 75 g of AS/ha): category A (category A = 50-100% reduction of the harmful action)
Reduction of the harmful effect (Oryza sativa (rice) [4]; herbicide (1.1.1.4) mesotrione 600 g of AS/ha, applied to the water around the test plants (paddy rice conditions), safener (Ia) 75 g of AS/ha): category A (category A = 50-100% reduction of the harmful action)
Reduction of the harmful effect (Oryza sativa (rice) [4]; herbicide (1.2.1.15) foramsulfuron 15 g of AS/ha, safener (Ia) 100 g of AS/ha): category B (category B = 20-49% reduction of the harmful action)
Reduction of the harmful effect (Oryza sativa (rice) [4]; herbicide (1.2.1.58) thiencarbazone-methyl 10 g of AS/ha, safener (Ia) 300 g of AS/ha): category A (category A = 50-100% reduction of the harmful action)
Reduction of the harmful effect (Oryza sativa (rice) [4]; herbicide (1.2.1.62b) bispyribac-sodium 200 g of AS/ha, safener (Ia) 75 g of AS/ha): category A (category A = 50-100% reduction of the harmful action)
Reduction of the harmful effect (Oryza sativa (rice) [4]; herbicide (1.3.1.20c) fenoxaprop-P-ethyl 100 g of AS/ha, safener (Ia) 300 g of AS/ha): category A (category A = 50-100% reduction of the harmful action)
Reduction of the harmful effect (Oryza sativa (rice) [4]; herbicides (1.2.1.14) mesosulfuron-methyl + (1.2.1.11b) iodosulfuron-methyl-sodium 4 + 0.8 g of AS/ha, safener (Ia) 150 g of AS/ha): category A (category A = 50-100% reduction of the harmful action)
Reduction of the harmful effect (Zea mays (corn) [5]; herbicide (1.1.1.22) isoxaflutole 300 g of AS/ha, safener (Ia) 300 g of AS/ha): category A (category A = 50-100% reduction of the harmful action)
Reduction of the harmful effect (Zea mays (corn) [5]; herbicide (1.4.4.17) flufenacet 125 g of AS/ha, safener (Ia) 150 g of AS/ha): category A (category A = 50-100% reduction of the harmful action)
Reduction of the harmful effect (Oryza sativa (rice) [6]): category B (category B = 20-49% reduction of the harmful action)
Reduction of the harmful effect (Hordeum vulgare (barley) [7]; herbicide (1.1.1.10) tembotrione 20 g of AS/ha): category A (category A = 50-100% reduction of the harmful action)
Reduction of the harmful effect (Hordeum vulgare (barley) [7]; [12]): category A (category A = 50-100% reduction of the harmful action)
Reduction of the harmful effect (Hordeum vulgare (barley) [7]; herbicide (1.3.1.20c) fenoxaprop-P-ethyl 400 g of AS/ha): category A (category A = 50-100% reduction of the harmful action)
Reduction of the harmful effect (Zea mays (corn) [8]; herbicide (1.1.1.22) isoxaflutole 200 g of AS/ha, safener (Ia) 0.5 g of AS/kg seed): category A (category A = 50-100% reduction of the harmful action)
Reduction of the harmful effect (Zea mays (corn) [8]; herbicide (1.2.1.58) thiencarbazone-methyl 5 g of AS/ha, safener (Ia) 1.0 g of AS/kg seed): category A (category A = 50-100% reduction of the harmful action)
action of the respective herbicide against economically important harmful plants [1]: not, or not substantially, adversely affected
action of the herbicide against economically important harmful plants [2]: not, or not substantially, adversely affected
Reduction of the harmful effect (Hordeum vulgare (barley) [9]; herbicide (1.2.1.14) mesosulfuron-methyl 30 g of AS/ha, safener (Ia) 0.5 g of AS/kg seed): category A (category A = 50-100% reduction of the harmful action)
Reduction of the harmful effect (Hordeum vulgare (barley) [9]; herbicide (1.2.1.58) thiencarbazone-methyl 15 g of AS/ha, safener (Ia) 1.0 g of AS/kg seed): category A (category A = 50-100% reduction of the harmful action)
Reduction of the harmful effect ([10]; herbicide (1.1.1.10) tembotrione 20 g of AS/ha, safener (Ia) 80 g of AS/ha): category A (category A = 50-100% reduction of the harmful action)
Reduction of the harmful effect ([10]; herbicide (1.1.2.10) picolinafen 200 g of AS/ha, safener (Ia) 100 g of AS/ha): category A (category A = 50-100% reduction of the harmful action)
Reduction of the harmful effect ([10]; herbicide (1.2.1.14) mesosulfuron-methyl 40 g of AS/ha, safener (Ia) 80 g of AS/ha): category A (category A = 50-100% reduction of the harmful action)
Reduction of the harmful effect ([10]; herbicide (1.2.1.58) thiencarbazone-methyl 15 g of AS/ha, safener (Ia) 100 g of AS/ha): category A (category A = 50-100% reduction of the harmful action)
Reduction of the harmful effect ([10]; herbicide (1.3.1.20c) fenoxaprop-P-ethyl 100 g of AS/ha, safener (Ia) 20 g of AS/ha): category A (category A = 50-100% reduction of the harmful action)
Reduction of the harmful effect ([10]; herbicide (2.2.12) flumioxazin 100 g of AS/ha, safener (Ia) 50 g of AS/ha): category B (category B = 20-49% reduction of the harmful action)
Reduction of the harmful effect (Zea mays (corn) [11]; herbicide (1.2.1.11b) iodosulfuron-methyl-sodium 100 g of AS/ha): category B (category B = 20-49% reduction of the harmful action)
Reduction of the harmful effect (Zea mays (corn) [11]; herbicide (1.2.1.48) imazethapyr 100 g of AS/ha): category A (category A = 50-100% reduction of the harmful action)
Reduction of the harmful effect (Zea mays (corn) [11]; herbicide (2.2.12) flumioxazin 50 g of AS/ha): category A (category A = 50-100% reduction of the harmful action)
